Each compound was assayed against MAPK14 (human) (UniProt Q16539) (assay: Inhibition of MAPK14 Kinase Activity).
MAPK14 (human), sequence (Q16539 whole entry, looked up): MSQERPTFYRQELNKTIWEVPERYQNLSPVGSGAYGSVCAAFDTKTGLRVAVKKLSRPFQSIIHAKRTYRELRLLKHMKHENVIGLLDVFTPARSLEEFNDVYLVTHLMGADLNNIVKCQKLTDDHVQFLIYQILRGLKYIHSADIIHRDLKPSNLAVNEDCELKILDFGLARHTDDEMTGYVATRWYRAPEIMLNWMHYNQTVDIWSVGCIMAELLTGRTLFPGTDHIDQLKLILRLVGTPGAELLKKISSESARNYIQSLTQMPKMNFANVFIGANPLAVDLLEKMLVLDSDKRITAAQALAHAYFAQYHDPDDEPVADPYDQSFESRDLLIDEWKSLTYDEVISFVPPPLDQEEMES

IC50, < 10 µM:
Cc1c(F)cc(C(=O)NC2CC2)cc1-c1ccc(C(=O)NC(CO)C2CC2)cc1 (stereo unspecified)
CCC(C)(C#N)NC(=O)c1ccc(-c2cc(C(=O)NC3CC3)cc(F)c2C)cc1 (stereo unspecified)
Cc1c(F)cc(C(=O)NC2CC2)cc1-c1ccc(C(=O)N2CCC2)cc1
Cc1c(F)cc(C(=O)NC2CC2)cc1-c1ccc(C(=O)NC2(C#N)CCCCC2)cc1
CSCCNC(=O)c1ccc(-c2cc(C(=O)NC3CC3)cc(F)c2C)cc1
Cc1c(F)cc(C(=O)NC2CC2)cc1-c1ccc(C(=O)N2CCCC2)cc1
Cc1c(F)cc(C(=O)NC2CC2)cc1-c1ccc(C(=O)NCCS(C)(=O)=O)cc1
CC(=O)CC(C)(C)NC(=O)c1ccc(-c2cc(C(=O)NC3CC3)cc(F)c2C)cc1
Cc1c(F)cc(C(=O)NC2CC2)cc1-c1ccc(C(=O)NCC2(O)CCCCC2)cc1
Cc1c(F)cc(C(=O)NC2CC2)cc1-c1ccc(C(=O)NCCC#N)cc1
Cc1c(F)cc(C(=O)NC2CC2)cc1-c1ccc(C(=O)NC(C)(C)C(=O)C(C)C)cc1

Reference: the Kinase Knowledgebase extract (Sharma et al. 2016)
